This note sets out measurements from patent US20150094260A1, “BUFFERED OPHTHALMIC COMPOSITIONS AND METHODS OF USE THEREOF” (ARAVA BIO-TECH LTD., priority 2010, published 2015).

Entries after “also recorded” stand apart in the source; their conditions may differ. Ends that are not written are not given here. * marks the point of attachment. Myristoyl = CCCCCCCCCCCCCC(=O)*

Experiment [1] deals with rabbit eyes subject to mechanical corneal wounding. Nature of the experiment: Mechanical corneal wounding in rabbit eyes, corneal erosion area by fluorescein staining. Type of experiment: in vivo. How it is done: Mechanical Corneal Ulcer Formation: A 6 mm corneal trephine (Grieshaber, Switzerland), preset for 50 micrometer in depth and a miniblade were used under a surgical microscope, to perform a uniform central corneal epithelial erosions, 6 mm in diameter and 50 micrometer in depth.
Rabbits were subjected to mechanical corneal wounding following the protocol discussed above. Eyes were treated by two daily ocular instillations of treatments during 3 successive days. Fluorescein staining was used to measure the corneal erosion area at twelve hours intervals starting 24 hrs post wounding and up to 72 hrs.
In addition to the time to heal parameter which is routinely assessed in wound healing studies, several publications established the importance of a new parameter, 50% reduction in wound size to serve as a robust predictor of complete wound closure. […] Results were therefore analyzed as percentage of eyes with 50% closure or higher at 24 hr post wounding (FIG. 2).
Rabbits were subjected to mechanical corneal wounding as discussed in Example 1. Eyes were treated by two daily ocular instillations of treatments during 3 successive days. Fluorescein staining was used to measure the corneal erosion area at six hours intervals.
Additional experiments were conducted using varying dosages of active agent. Rabbits were subjected to mechanical corneal wounding as described above. Eyes were treated by two daily ocular instillations of treatments during 3 successive days with 0.1 or 0.5 μg/eye/treatment of MPDY-1 alone in HOB-10 (referred to as HO/05/09) or in BSS or in combination with insulin 0.1-0.5 μg/eye/treatment. Rabbits received a total of daily dose from 0.1 μg (1 μg/ml) and up to 2 μg (20 μg/ml). Fluorescein staining was used to measure the corneal erosion area at twelve hours intervals starting 24 hrs post wounding and up to 72 hr.
Rabbits were subjected to mechanical corneal wounding as described above. […]

Experiment [2] concerns ICAM-1 expression on endothelial cells and keratinocytes; macrophages, neutrophiles and T-cells at inflammation site. As to the kind of experiment: Anti-inflammatory effect of MPDY-1 in various in-vitro, ex-vivo and in-vivo models. An excerpt:
This example discusses experiments showing the anti-inflammatory effect of MPDY-1.

Experiment [3] deals with corneal wound in mice. As to the kind of experiment: Alkali burning of mouse corneas with Silver Nitrate applicators. The following applies: 1 μg/ml; for wound healing compared to control (Formula 1): 3 times daily for 3 or 7 days; for neutrophils recruitment to the corneal wound gap / pathological angiogenesis in corneal wound area / pathological corneal swelling / corneal re-epithelialization (wounds with full epidermal closure at 7 days post wounding) / inflammatory cells (lymphocytes) infiltration into the wound area: three daily instillations, Formula 1 as control; for neutrophils recruitment to the corneal wound gap / pathological angiogenesis in corneal wound area / pathological corneal swelling / inflammatory cells (lymphocytes) infiltration into the wound area: 3 days; for neutrophils recruitment to the corneal wound gap: FIG. 32; for pathological angiogenesis in corneal wound area: FIG. 33; for pathological corneal swelling: FIG. 34; for corneal re-epithelialization (wounds with full epidermal closure at 7 days post wounding): FIG. 30; for inflammatory cells (lymphocytes) infiltration into the wound area: FIG. 31. It is filed as in vivo. The protocol:
Mice were subjected to chemical alkali burn wounding (using Silver Nitrate applicators for 10 seconds). Eyes were treated by three daily ocular instillations of treatments during 7 successive days with DAP-1 1 μg/ml, DIP-1 1 μg/ml and EPIP-2 1 μg/ml or with Formula 1 as control. Percentage of wounds achieved full epidermal closure at 7 days post wounding.
FIG. 31 is a histogram showing that DAP-1 1 μg/ml and DIP-1 1 μg/ml reduce lymphocytes infiltration in corneal wound gap in mice. Mice were subjected to chemical alkali burn wounding (using Silver Nitrate applicators for 10 seconds). Eyes were treated by three daily ocular instillations of treatments during 3 successive days with DAP-1 1 μg/ml, DIP-1 1 μg/ml and EPIP-2 1 μg/ml or with Formula 1 as control. Histological H&E staining of the corneas wounded area was performed and lymphocytes infiltration was arbitrarily assessed.
FIG. 32 is a histogram showing that DAP-1 1 μg/ml and EPIP-2 1 μg/ml decrease neutrophils recruitment to the corneal wound gap in mice. Mice were subjected to chemical alkali burn wounding (using Silver Nitrate applicators for 10 seconds). Eyes were treated by three daily ocular instillations of treatments during 3 successive days with DAP-1 1 μg/ml, DIP-1 1 μg/ml and EPIP-2 1 μg/ml or with Formula 1 as control. Histological sections of […] were stained with specific neutrophil staining kit (according to manufacturer). Neutrophils were counted per fixed field ×200 and represented by arbitrary units.
Mice were subjected to chemical alkali burn wounding (using Silver Nitrate applicators for 10 seconds). Eyes were treated by three daily ocular instillations of treatments during 3 successive days with DAP-1 1 μg/ml, DIP-1 1 μg/ml and EPIP-2 1 μg/ml or with Formula 1 as control. Histological H&E staining of the corneas wounded area has been performed. Blood vessels in entire corneal area were assessed and the results are represented graphically in objective arbitrary units.
FIG. 34 is a histogram showing that DIP-1 1 μg/ml and EPIP-2 1 μg/ml decrease pathological swelling of wounded cornea in mice. Mice were subjected to chemical alkali burn wounding (using Silver Nitrate applicators for 10 seconds). Eyes were treated by three daily ocular instillations of treatments during 3 successive days with DAP-1 1 μg/ml, DIP-1 1 μg/ml and EPIP-2 1 μg/ml or with Formula 1 as control. Histological H&E staining of the corneas wounded area has been performed and corneal swelling was objectively assessed. The results are presented in arbitrary units. […]
In another experiment, Alkali burning of corneas was performed on anaesthetized mice using Silver Nitrate applicators (75% Silver nitrate, 25% Potassium nitrate, Grafco, GFCO Inc.) for 10 seconds. The eyes were irrigated immediately with 5 ml sterile saline. Eyes were treated 3 times daily for 3 or 7 days with DAP-1 1 μg/ml, DIP-1 1 μg/ml and EPIP-2 1 μg/ml or Formula 1 as control.

As to “MPDY-1: N-myristoylated peptide defined by SEQ ID NO: 2 (Phe-Ala-Arg-Lys-Gly-Ala-Leu-Arg-Gln), PKC-α inhibitor; tested in BSS (Myristoyl-FARKGALRQ)”, in experiment [1] (48 hr, MPDY-1 0.1 or 0.5 μg/eye/treatment, two daily instillations, FIG. 11), the “eyes completely healed without ocular scarring (full closure) at 48 hr post wounding” value stood at 30%. The “time within which all treated eyes reached full closure” value in experiment [1] (post wounding, FIG. 11) is at most 72 h. Further, the “closure of ocular injury at 24 h post wounding” value in experiment [1] (versus Control (standard of care ocular buffer), two daily instillations, FIG. 9) worked out at 60%. For the same substance, in experiment [2], the “ICAM-1 expression on endothelial cells and keratinocytes” value was “attenuate ICAM-1 expression on endothelial cells and keratinocytes”; the “activation of macrophages at inflammation site” value is given as “attenuate activation of macrophages at inflammation site”; the “macrophages, neutrophiles and T-cells infiltration into inflammation site” value was “inhibit macrophages, neutrophiles and T-cells infiltration into inflammation site”.
On to “H-Pro-Tyr-Ile-Ala-Leu-Asn-Val-Asp-OH (H-PYIALNVD-OH) [EPIP-2]”, for which, in experiment [3], the “wound healing compared to control (Formula 1)” value is on record as “wound healing enhancement”, the “neutrophils recruitment to the corneal wound gap” value is reported as “more potent in decreasing specific neutrophils recruitment”, the “pathological angiogenesis in corneal wound area” value (shortened to “pathological angiogenesis”) was “reduce angiogenesis in corneal wound gap” and the pathological corneal swelling entry is reported as “normalization in pathological corneal swelling”. Besides, the “corneal re-epithelialization (wounds with full epidermal closure at 7 days post wounding)” value (shortened to “corneal re-epithelialization”) in experiment [3] is recorded as “promote re-epithelialization of corneal wound”.
Regarding “Myristoyl-Ser-Phe-Asn-Ser-Tyr-Glu-Leu-Gly-Ser-Leu-OH (Myristoyl-SFNSYELGSL-OH; SMILES CCCCCCCCCCCCCC(=O)N[C@@H](CO)C(=O)N[C@@H](Cc1ccccc1)C(=O)N[C@@H](CC(N)=O)C(=O)N[C@@H](CO)C(=O)N[C@@H](Cc1ccc(O)cc1)C(=O)N[C@@H](CCC(=O)O)C(=O)N[C@@H](CC(C)C)C(=O)NCC(=O)N[C@@H](CO)C(=O)N[C@@H](CC(C)C)C(=O)O) [DIP-1]”, in experiment [3], the “wound healing compared to control (Formula 1)” value is reported as “wound healing enhancement”, the “inflammatory cells (lymphocytes) infiltration into the wound area” value is given as “excelled in reducing inflammatory cells infiltration into the wound area”, the “pathological angiogenesis” value is listed as “reduce angiogenesis in corneal wound gap” and the pathological corneal swelling entry is “normalization in pathological corneal swelling”. In experiment [3], the “corneal re-epithelialization” value was “more potent; also recorded: promote re-epithelialization of corneal wound”.
In the case of “H-Met-Arg-Ala-Ala-Glu-Ala-Ala-Ala-Ala-Glu-Pro-Met-OH (H-MRAAEAAAAEPM-OH) [DAP-1]”, in experiment [3], the “wound healing compared to control (Formula 1)” value was “wound healing enhancement”, the “inflammatory cells (lymphocytes) infiltration into the wound area” value is on record as “excelled in reducing inflammatory cells infiltration into the wound area”, the “neutrophils recruitment to the corneal wound gap” value is on record as “more potent in decreasing specific neutrophils recruitment” and the “pathological angiogenesis” value is reported as “reduce angiogenesis in corneal wound gap”. Moreover, in experiment [3], the “corneal re-epithelialization” value is recorded as “promote re-epithelialization of corneal wound”.
